{"source": "patent US8795746B2", "about": "“Therapeutic use of mucin glycans” (The Board of Trustees of the Leland Stanford Junior …, priority 2011, dated 2014)", "key": {"[1]": {"test_system": "Bt and Bi fecal community", "test": "Competitive colonization of gnotobiotic mice biassociated with Bt and B. infantis, LNnT in the water", "assay_type": "in vivo, germ-free Swiss-Webster mice", "description": "Two groups of 6-week-old germ-free mice were fed a polysaccharide-deficient diet, forcing a reliance on host mucus glycans for carbon and energy. One group received LNnT supplementation in the water (1% w/v; average consumption of 75 mg of LNnT daily), the control group received plain water.\nAfter one day of LNnT feeding, both groups were colonized with equivalent quantities of Bt and Bi (10^8 CFU each). At day 6 post-inoculation, the group receiving LNnT was switched to normal water; at day 15 post-inoculation, LNnT was readministered for 3 additional days. Total bacterial colonization density was determined by assessing the CFUs in feces over the course of the 18 day experiment. […] LNnT supplementation was withdrawn on day 6 and colonization density was determined on days 7, 8, 9, 12, and 15 post colonization (1, 2, 3, 6, and 9 days after removing LNnT from the water). […] At day 3 post withdrawal of LNnT, Bi representation was 3.9±0.2% compared to 41.5±6.4% just prior to withdrawal (p=0.006, day 6 versus day 9, n=4 mice). LNnT was reintroduced into the water on day 15, and bacterial colonization was monitored at days 16, 17, and 18 post colonization. Two days after LNnT reintroduction, Bi expanded from 0.5±0.5% at day 15 to 49.9±2% at day 17 (p=0.012, day 15 versus day 17, n=4 mice). By day 18, Bi represented 25.9±9.6% of the community in LNnT-fed mice, compared to 1.9±1.5% in the control group (p=0.014, n=4 mice) (FIG. 16C).\nCompetitive Colonization of Gnotobiotic Mouse. Germ-free Swiss-Webster mice were reared in gnotobiotic isolators and fed an autoclaved polysaccharide-deficient diet in accordance with A-PLAC, the Stanford IACUC. Mice were biassociated using oral gavage (10^8 CFU of each species). Subsequent community enumerations from mice were determined from freshly collected feces, by selective plating of serial dilutions in RCM agar and BHI-blood agar supplemented with gentamicin ([…]). Significant differences between sample groups were determined using Student's t test. Synthetic LNnT (Glycom A/S, Denmark) was purified by crystallization to a final purity of >99%. Characterization was performed using multiple methods, including NMR (1D and 2D) mass spectrometry, and HPLC."}, "Bif. infantis ATCC15697": {"test_system": "Bif. infantis ATCC15697", "test": "In vitro growth of Bif. infantis in minimal medium with the glycan as carbon source", "assay_type": "cell-based, Bifidobacterium longum subsp. infantis", "conditions": "minimal medium (modified MRS without glucose) with the glycan", "description": "We next queried whether the redundancy in machinery employed for mucin and HMO consumption in Bt is also found in Bifidobacterium species that are well-adapted to HMO use. Therefore, we grew a strain known to be proficient at HMO-use, Bif. infantis ATCC15697 in MM-O-PMG.\n(§1) Bacterial Strains and Culture conditions. Type strains for Bacteroides species were used unless otherwise indicated. Bacteroides species were grown in tryptone-yeast extract-glucose (TYG) medium and minimal medium (MM) as described previously. Bif. infantis was grown in Man-Rogosa-Sharpe (MRS) medium (Oxoid LTD., Basingstoke, Hampshire, England) and minima medium consisting of modified MRS, which lacks glucose. […] OD600 was monitored using a BioTek PowerWave 340 plate reader (BioTek, Winoosky, Vt., United States) every 30 min, at 37° C. anaerobically (6% H2, 20% CO2, 74% N2).\nB. thetaiotaomicron and Bifidobacterium infantis Differentially Consume the Structurally Similar Mucin Glycans and HMO. […] We grew an HMO-consuming Bifidobacterium strain that is abundant in the microbiota of breast-fed infants, Bi, in purified porcine mucin glycans (MM-O-PMG) to elucidate its competence in mucin consumption. […]\n(§2) Bacterial Strains and Culture Conditions. […] OD600 was monitored using a BioTek PowerWave 340 plate reader (BioTek, Winooski, Vt.) every 30 min, at 37_C anaerobically (6% H2, 20% CO2, 74% N2)."}, "[2]": {"test_system": "Bacteroides thetaiotaomicron (Bt)", "test": "In vitro growth of Bt in minimal medium with the glycan as sole carbohydrate (OD600)", "assay_type": "cell-based", "conditions": "glycan 1.5% w/v as sole carbon source", "description": "The transcriptome was analyzed near the midpoints of the two logarithmic growth phases in MM-HMO (n=2 biological replicates/growth phase, four datasets total). As a baseline for comparison, we used previously reported in vitro datasets of Bt grown in MM-glucose. […] Within these combined 253 genes (132 were commonly up regulated in both phases), 137 genes had ≧5-fold change in expression when compared to MM-glucose (see Table S1 for complete list of genes).\nas §1\nas §2, with “Conditions. Type strains were used unless otherwise indicated. Bacteroides species were grown in tryptone-yeast extract-glucose (TYG) medium and minimal medium (MM).” for “Conditions.”"}, "Bt": {"test_system": "Bt", "test": "Sialic acid content determination in MM-HMO after Bt growth", "assay_type": "cell-based, Bacteroides thetaiotaomicron", "description": "Twelve of the 21 HMO-specific Bf genes were distributed within two loci that are dedicated to sialic acid acquisition and catabolism (FIG. 16B). […] To confirm that Bf does in fact consume sialic acids from HMOs, sialic acid content in the MM-HMO after growth was measured before and after acid hydrolysis using derivatization with 1,2-diamino-4,5-methylenedioxybenzene followed by reverse phase HPLC.\n(§3) Sialic Acid Content Determination. Culture supernatant was isolated after growth in MM-HMO and clarified by centrifugation and filtration. Sialic acid concentrations were determined by the Glycotechnology Core Facility UCSD (University of California, San Diego, San Diego, Calif.), using the […] DMB labeling kit protocol (Prozyme, San Leandro, Calif.)."}, "B. fragilis": {"test_system": "B. fragilis", "test": "Sialic acid content determination in MM-HMO after B. fragilis growth (DMB derivatization, RP-HPLC)", "assay_type": "cell-based, Bacteroides fragilis", "description": "Ten of the 21 genes in the HMO-specific B. fragilis response were distributed within two loci that are dedicated to sialic acid acquisition and catabolism (FIG. 6B).\nSialic acid content determination. B. fragilis culture supernatant was isolated after growth in MM-HMO and clarified by centrifugation and filtration. Sialic acid concentrations were determined by the Glycotechnology Core Facility UCSD (University of California, San Diego, Calif., United States). Briefly, sialic acids were released by acid hydrolysis at 80 C for 3 hours in 2M acetic acid, collected by ultra-filtration, and derivatized with DMB (1,2-diamino-4,5-methylenedioxybenzene). The resulting fluorescent sialic acids derivatives were analyzed by RP-HPLC with on-line fluorescence detection, and identification was based on standards run in parallel.\nas §3"}, "Bt VPI-5482 genes / PULs": {"test_system": "Bt VPI-5482 genes / PULs", "test": "Whole genome transcriptional profiling of Bt (GeneChip) relative to MM-glucose", "assay_type": "cell-based, Bacteroides thetaiotaomicron", "conditions": "compared to MM-glucose", "experimental": "We grew Bt in minimal medium (MM) containing HMO (1.5% w/v) as the sole carbohydrate to investigate if this strain consumes human milk glycans in vitro. […] Next, we defined the transcriptional response of Bt during HMO consumption using whole genome transcriptional profiling with a custom Bt VPI-5482 GeneChip that represent >98% of this organism's protein coding genes. The transcriptome was analyzed near the midpoints of the two logarithmic growth phases in MM-HMO (n=2 biological replicates/growth phase, four datasets total). As a baseline for comparison, we used previously reported in vitro datasets of Bt grown in MM-glucose.\nWe wished to identify which portion of the observed Bt transcriptional response in MM-HMO was due to the complex oligosaccharides versus simple core sugars, lactose and galactose. Therefore, we performed transcriptional profiling of Bt grown in MM-galactose and MM-lactose (n=2 mid-log phase datasets for each of these monophasic growths; see FIG. 8 for growth curves and sampling timepoints).\nWhole Genome Transcriptional Profiling. […] GeneChip data from bacteria growth in different carbon sources were normalized using R program by RMA-MS and statistical significance for differential gene expression was determined using SAM [45]. […]"}}}
{"molecule": "CC(=O)N[C@H]1[C@H](O[C@H]2[C@@H](O)[C@@H](CO)O[C@@H](O[C@H]3[C@H](O)[C@@H](O)C(O)O[C@@H]3CO)[C@@H]2O)O[C@H](CO)[C@@H](O[C@@H]2O[C@H](CO)[C@H](O)[C@H](O)[C@H]2O)[C@@H]1O", "note": "(mixture of isomers) [LNnT, lacto-N-neotetraose]", "values": [{"measurement": "time for Bi to drop to levels similar to controls after removal of LNnT", "setting": "[1]; LNnT withdrawn on day 6", "value": "≤ 2", "unit": "days"}, {"measurement": "Bi relative to Bt in fecal community", "setting": "[1]; day 6, LNnT 1% w/v in water, polysaccharide-deficient diet", "value": "41.5±6.4", "unit": "%"}, {"measurement": "Bi representation", "setting": "[1]; day 9, day 3 post withdrawal of LNnT", "value": "3.9±0.2", "unit": "%"}, {"measurement": "Bi representation", "setting": "[1]; day 15, before LNnT reintroduction", "value": "0.5±0.5", "unit": "%"}, {"measurement": "Bi representation", "setting": "[1]; day 17, two days after LNnT reintroduction", "value": "49.9±2", "unit": "%"}, {"measurement": "Bi share of the community", "setting": "[1]; day 18, LNnT-fed mice", "value": "25.9±9.6", "unit": "%"}, {"measurement": "growth of Bif. infantis", "setting": "Bif. infantis ATCC15697", "value": "grew efficiently reaching a high OD"}, {"measurement": "growth of Bt", "setting": "[2]", "value": "did not"}]}
{"molecule": "CC(=O)N[C@H]1[C@H]([C@H](O)[C@H](O)CO)OC(O)(C(=O)O)C[C@@H]1O", "note": "(stereo partly drawn) [Neu5Ac, N-acetylneuraminic acid]", "values": [{"measurement": "Neu5Ac use by Bt", "setting": "Bt", "value": "unable to catabolize it"}, {"measurement": "Neu5Ac content after B. fragilis growth", "setting": "B. fragilis", "value": "completely depleted"}]}
{"molecule": "O=C[C@H](O)[C@@H](O)[C@@H](O)[C@H](O)CO", "note": "[galactose]", "values": [{"measurement": "number of Bt genes up regulated at least 5-fold", "setting": "Bt VPI-5482 genes / PULs", "value": 40, "unit": "genes"}]}
{"molecule": "OC[C@H]1O[C@@H](O[C@H]2[C@H](O)[C@@H](O)C(O)O[C@@H]2CO)[C@H](O)[C@@H](O)[C@H]1O", "note": "(stereo partly drawn) [lactose]", "values": [{"measurement": "number of Bt genes up regulated at least 5-fold", "setting": "Bt VPI-5482 genes / PULs", "value": 34, "unit": "genes"}]}
